We go through seven compounds from patent US4849436A, “1,4-dihydropyridines” (Nelson Research & Development Co., priority 1986, dated 1989).

As usually defined, the Ki is a measure of affinity in units of concentration, obtained from inhibition or displacement.

The test addresses T1, dihydropyridine (DHP) site (Oryctolagus cuniculus, UniProt P07293).
T1 construct: Washed rabbit skeletal muscle membranes (fraction 2-8X); from tissue; host or cells: rabbit skeletal muscle, washed membranes (fraction 2-8X)
As to the kind of experiment: 3H-nitrendipine binding assay on washed rabbit skeletal muscle membranes. The settings on record: read-out: Binding Assay KI (moles). The protocol:
The incubation tubes were rapidly chilled in ice and the contents filtered through Whatman GF/B filters on a Millipore manifold, and the filters washed with 2×10 ml ice-cold HEPES buffer. The filters were placed in scintillation counting vials with 8 ml of Cytoscint cocktail, disrupted mechanically by shaking for 30 minutes and counted.
Drugs which interact at the dihydropyridine (DHP) site will reduce this specific binding in a dosedependent manner. The assays for the compounds of this invention were made with logarithmically spaced concentrations, the data were plotted on a probitconcentration plot, and the IC50 read off. The KI of the compound was calculated by standard techniques.

T1 sequence (P07293 1-1664 limits assumed): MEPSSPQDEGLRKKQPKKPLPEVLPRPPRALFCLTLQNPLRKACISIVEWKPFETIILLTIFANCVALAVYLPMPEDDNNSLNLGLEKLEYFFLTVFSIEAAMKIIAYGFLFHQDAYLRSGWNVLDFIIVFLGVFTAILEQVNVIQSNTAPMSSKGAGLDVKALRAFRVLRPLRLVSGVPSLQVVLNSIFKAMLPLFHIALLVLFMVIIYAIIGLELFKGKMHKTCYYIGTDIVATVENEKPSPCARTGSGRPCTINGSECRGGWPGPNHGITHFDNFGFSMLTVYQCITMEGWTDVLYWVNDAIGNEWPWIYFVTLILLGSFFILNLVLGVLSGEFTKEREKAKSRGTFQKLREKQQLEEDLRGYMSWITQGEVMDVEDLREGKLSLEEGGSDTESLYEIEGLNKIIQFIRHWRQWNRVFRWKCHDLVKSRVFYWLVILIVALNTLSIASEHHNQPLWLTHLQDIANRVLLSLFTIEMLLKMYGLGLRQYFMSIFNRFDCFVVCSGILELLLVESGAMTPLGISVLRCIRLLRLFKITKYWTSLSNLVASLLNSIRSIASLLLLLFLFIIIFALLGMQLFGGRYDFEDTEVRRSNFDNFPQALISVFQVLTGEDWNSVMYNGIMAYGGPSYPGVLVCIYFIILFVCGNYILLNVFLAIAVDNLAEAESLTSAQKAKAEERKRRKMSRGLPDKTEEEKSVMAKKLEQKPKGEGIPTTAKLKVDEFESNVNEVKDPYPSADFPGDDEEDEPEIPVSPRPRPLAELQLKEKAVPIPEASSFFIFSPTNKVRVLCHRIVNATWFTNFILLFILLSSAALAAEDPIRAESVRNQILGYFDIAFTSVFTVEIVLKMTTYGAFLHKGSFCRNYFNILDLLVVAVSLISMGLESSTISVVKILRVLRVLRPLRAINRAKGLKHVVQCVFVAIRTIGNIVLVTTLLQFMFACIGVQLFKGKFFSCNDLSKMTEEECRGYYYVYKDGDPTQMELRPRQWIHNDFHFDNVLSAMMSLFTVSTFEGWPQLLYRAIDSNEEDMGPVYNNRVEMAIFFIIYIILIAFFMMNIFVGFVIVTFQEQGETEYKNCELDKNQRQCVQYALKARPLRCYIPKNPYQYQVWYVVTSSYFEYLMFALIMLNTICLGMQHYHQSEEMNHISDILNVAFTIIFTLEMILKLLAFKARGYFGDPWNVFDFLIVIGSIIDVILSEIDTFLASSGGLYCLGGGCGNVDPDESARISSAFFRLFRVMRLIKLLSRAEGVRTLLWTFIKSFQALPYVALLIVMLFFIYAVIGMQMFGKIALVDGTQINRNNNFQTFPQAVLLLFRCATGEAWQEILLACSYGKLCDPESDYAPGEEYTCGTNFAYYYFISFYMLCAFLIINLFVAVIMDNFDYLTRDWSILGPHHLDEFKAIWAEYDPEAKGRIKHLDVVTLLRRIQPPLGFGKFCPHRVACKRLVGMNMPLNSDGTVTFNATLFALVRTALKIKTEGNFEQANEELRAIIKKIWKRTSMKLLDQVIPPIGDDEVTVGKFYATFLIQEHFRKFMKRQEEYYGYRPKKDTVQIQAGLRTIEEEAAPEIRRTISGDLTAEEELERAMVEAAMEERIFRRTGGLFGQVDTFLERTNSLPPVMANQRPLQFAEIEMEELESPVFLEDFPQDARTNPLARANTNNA
T1 sequence (P13806 27-960 partner limits assumed): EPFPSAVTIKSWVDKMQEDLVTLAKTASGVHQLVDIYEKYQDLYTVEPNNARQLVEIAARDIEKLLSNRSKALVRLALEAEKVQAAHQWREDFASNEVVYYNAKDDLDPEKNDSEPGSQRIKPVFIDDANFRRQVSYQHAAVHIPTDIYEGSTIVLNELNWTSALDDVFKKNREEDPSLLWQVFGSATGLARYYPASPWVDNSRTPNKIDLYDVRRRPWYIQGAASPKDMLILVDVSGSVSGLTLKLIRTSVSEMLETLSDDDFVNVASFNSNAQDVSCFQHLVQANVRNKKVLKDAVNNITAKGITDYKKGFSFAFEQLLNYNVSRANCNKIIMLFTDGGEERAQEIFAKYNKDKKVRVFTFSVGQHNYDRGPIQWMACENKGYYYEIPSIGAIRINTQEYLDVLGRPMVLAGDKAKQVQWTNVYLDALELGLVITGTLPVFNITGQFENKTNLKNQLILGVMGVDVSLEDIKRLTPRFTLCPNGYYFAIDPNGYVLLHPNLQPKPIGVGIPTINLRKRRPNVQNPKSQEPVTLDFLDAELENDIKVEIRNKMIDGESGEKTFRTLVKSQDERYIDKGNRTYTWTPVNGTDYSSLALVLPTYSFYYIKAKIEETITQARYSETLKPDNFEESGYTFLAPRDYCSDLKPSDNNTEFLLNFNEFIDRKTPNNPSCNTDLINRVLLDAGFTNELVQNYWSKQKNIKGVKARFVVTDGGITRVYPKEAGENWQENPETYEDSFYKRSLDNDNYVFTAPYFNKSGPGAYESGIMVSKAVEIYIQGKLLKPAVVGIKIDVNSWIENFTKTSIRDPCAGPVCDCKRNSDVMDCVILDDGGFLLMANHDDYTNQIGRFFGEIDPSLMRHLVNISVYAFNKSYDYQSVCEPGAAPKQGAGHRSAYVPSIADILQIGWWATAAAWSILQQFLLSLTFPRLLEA
T1 sequence (P13806 961-1106 partner limits assumed): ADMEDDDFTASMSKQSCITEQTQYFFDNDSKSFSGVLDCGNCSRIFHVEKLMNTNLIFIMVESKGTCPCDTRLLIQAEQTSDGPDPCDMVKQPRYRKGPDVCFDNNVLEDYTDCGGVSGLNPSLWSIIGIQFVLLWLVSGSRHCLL
T1 sequence (P19517 whole entry partner): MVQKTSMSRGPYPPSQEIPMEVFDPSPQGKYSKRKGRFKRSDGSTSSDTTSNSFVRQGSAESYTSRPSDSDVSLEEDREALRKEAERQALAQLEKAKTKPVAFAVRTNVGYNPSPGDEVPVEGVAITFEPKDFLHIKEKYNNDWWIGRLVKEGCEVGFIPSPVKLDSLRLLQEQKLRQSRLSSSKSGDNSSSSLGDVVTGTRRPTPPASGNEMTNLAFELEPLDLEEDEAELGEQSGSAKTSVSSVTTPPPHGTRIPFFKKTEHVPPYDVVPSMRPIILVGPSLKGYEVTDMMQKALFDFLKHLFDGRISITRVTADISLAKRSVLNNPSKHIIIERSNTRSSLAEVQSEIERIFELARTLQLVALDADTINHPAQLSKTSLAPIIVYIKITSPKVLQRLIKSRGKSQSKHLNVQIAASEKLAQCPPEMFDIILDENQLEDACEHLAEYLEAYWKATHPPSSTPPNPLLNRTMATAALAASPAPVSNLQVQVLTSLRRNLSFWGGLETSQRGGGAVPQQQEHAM
T1 sequence (P19518 whole entry partner): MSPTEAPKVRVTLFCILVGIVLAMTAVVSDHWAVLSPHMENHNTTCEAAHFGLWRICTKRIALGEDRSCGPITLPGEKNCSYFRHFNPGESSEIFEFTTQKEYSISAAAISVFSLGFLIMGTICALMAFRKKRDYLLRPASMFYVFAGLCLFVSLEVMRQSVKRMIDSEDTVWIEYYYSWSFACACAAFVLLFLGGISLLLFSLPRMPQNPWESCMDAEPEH

Turning to `CCOC(=O)C1=C(CCN2C(=O)c3ccccc3C2=O)NC(C)=C(C(=O)OC)C1c1cccc([N+](=O)[O-])c1` (stereo not shown) [12(e), 1,4-Dihydro-6-methyl-4(3-nitrophenyl)2-(2-phthalimidoethyl)-3,5-pyridine dicarboxylic acid-3-ethyl-5-methyl ester], the inhibition constant (Ki) was 105 nM.

With `COC(=O)C1=C(C)NC(C)=C(C(=O)OCCN)C1c1cccc(C)c1` (stereo not shown) [Example 2, 1,4-Dihydro-2,6-dimethyl-4-(3-methylphenyl)-3,5-pyridine dicarboxylic acid, 3-(2-aminoethyl)-5-methyl ester], the inhibition constant (Ki) turned out to be 1250 nM.

Consider `COC(=O)C1=C(C)NC(C)=C(C(=O)OCCN)C1c1cccc([N+](=O)[O-])c1` (stereo not shown) [Example 3, 1,4-Dihydro-2,6-dimethyl-4-(3-nitrophenyl)-3,5-pyridine dicarboxylic acid, 3-(2-aminoethyl)-5-methyl ester], for which the Ki was over 100 nM.

Regarding `COC(=O)C1=C(C)NC(C)=C(C(=O)OCCN=C=S)C1c1cccc([N+](=O)[O-])c1` (stereo not shown) [Example 7, 1,4-Dihydro-2,6-dimethyl-4-(3-nitrophenyl)-3,5-pyridine dicarboxylic acid, 3-(2isothiocyanatoethyl)-5-methyl ester], the inhibition constant Ki stood at 1.3 nM.

For `COC(=O)C1=C(C)NC(C)=C(C(=O)OCCCN=C=S)C1c1cccc([N+](=O)[O-])c1` (stereo not shown) [Example 8, 1,4-Dihydro-2.6-dimethyl-4-(3-nitrophenyl)-3,5-pyridine dicarboxylic acid, 3-(3-isothiocyanatopropyl)-5-methyl ester], the Ki is 1.6 nM.

With `COC(=O)C1=C(C)NC(C)=C(C(=O)OCCCCCCN=C=S)C1c1cccc([N+](=O)[O-])c1` (stereo not shown) [Example 9, 1,4-Dihydro-2,6-dimethyl-4-(3-nitrophenyl)-3,5-pyridine dicarboxylic acid, 3-(6-isothiocyanatohexyl)-5-methyl ester], the Ki came to 1.9 nM.

For `CCOC(=O)C1=C(CCN2C(=O)c3ccccc3C2=O)NC(CCN2C(=O)c3ccccc3C2=O)=C(C(=O)OCC)C1c1cccc([N+](=O)[O-])c1` [Example 13, 1,4-Dihydro-4(3-nitrophenyl)-2,6-(2-phthalimidoethyl)-3,5-pyridine dicarboxylic acid, ethyl ester], the Ki is 1120 nM.
